# Read-outs that look alike come from different tables or passages of the source.
# How the values were obtained:
# [1] = system: primary human AML cells; assay: Flow cytometry staining for differentiation (CD11b/CD14); type: cell-based; conditions: 1 μM, 14 days
# Method: Flow cytometry staining for differentiation: Primary AML cells were solubilized from the methocult in the CFU assays. 5e5 cells were stained and analyzed by flow cytometry as follows: Gating on CD45 positive hematopoietic cells; B, T and NK-cells were identified using CD19, CD3 and NK1.1 surface markers; differentiation in the myeloid population was assessed by gating on CD34/CD33 positive myeloid cells and staining for CD11 b and CD14.
# FIGS. 5A-5E show representative flow cytometry data for induction of CD11b and CD14 positive cells in primary human AML cells following vehicle treatment, treatment with a representative disclosed compound, Cpd3, or treatment with a reference compound, brequinar (indicated as “BQR” in the figures) using methods as described herein below. Briefly, primary AML cells were treated with vehicle (DMSO), Cpd3 (1 μM) or brequinar (BQR, 1 μM) and plated in methylcellulose for 14 days. Cells were recovered from the methylcellulose and characterized by flow cytometry (gating on CD34/CD33 positive myeloid cells and staining for CD11b and CD14). FIGS. 5A-5C show the percentage of CD11b and CD14 positive cells within the live CD33/CD34 positive population for a representative “responder” sample. FIGS. 5D and 5E show collective data for eight primary AML samples. […]
# [2] = Pharmacokinetic study, oral dosing at different dose levels; type: in vivo, wild type B6 mice; conditions: for AUC(0-t) / Cmax / Tmax / half-life: B6, mouse, plasma, oral gavage; for AUC(0-t): po
# Source text: LC-MS/MS Assay Materials: Acetonitrile and methanol were LC-MS grade (Fisher Scientific (Fair Lawn, N.J., USA). Other chemicals were as follows: formic Acid (98%, v/v in water; Fisher Scientific, Fair Lawn, N.J., USA); ammonium acetate (Sigma Aldrich Inc.); water: DDH2O obtained from a Millipore water system; and brequinar was obtained from Sigma. (>99% purity). Solvent A: 0.1% formic acid in water. Solvent B: 0.1% Formic Acid in methanol and acetonitrile. Internal Standard (“IS”) precipitation solution was 150 ng/ml internal standards in acetonitrile: water (3:1, v/v).
# Sample preparation: To 10 μL plasma sample was added 100 μL of working IS solution and 20 μL MeOH. Samples were then vortexed for 30 seconds, followed by centrifugation (Eppendorf 5415 R centrifuge) at 10,000 rpm for 8 minutes at 4° C. Supernatant of each sample was transferred into an autosampler vial and sealed with rubber/Teflon crimp cap. Sample volume that was injected onto HPLC was 5 μL. The calibrations samples were prepared at a test compound concentration of 1000, 500, 250, 100, 50, 10, 5 ng/mL in mouse plasma. The quality control samples were as follows: QC1=750 ng/mL, OC2=75 ng/mL, QC3=25 ng/mL, LLOQ=5 ng/mL.
# HPLC Parameters: Accucore Vanquish C18 column (100×2.1 mm, dp=1.5 μm) used in a Vanquish UHPLC system, using a XBridge® BEH C18, 5-μm guard column. Mobile phase: gradient as provided below in Table 8 below. Column temperature: 40° C.±5° C.; Autosampler temperature: 10° C.±5° C. Flow rate: 0.4 ml/min. run time: 5.0 min.
# The mass spectrometer used was a TSQ Quantiva (Thermo Fisher Scientific).
# FIGS. 14A-14C show representative pharmacokinetic data obtained following administration of a representative disclosed compound, Cpd3, via oral dosing at different dose levels carried out using the methods described herein below in Examples. Briefly, wild type B6 mice were administered a single dose of Cpd3 by oral gavage at increasing concentrations (10, 25, 50 and 75 mg/kg). Blood plasma was sampled at 15, 30 and 60 minutes, and 2, 6 and 24 hours.
# [3] = system: luciferase-expressing MOLM-13 cells; assay: MOLM13 xenograft study, daily dosage regimen; type: in vivo, NCG mice
# Method: The effect of a representative disclosed compound, Cpd3, on in vivo tumor growth was assessed in a MOLM13 xenograft study was examined using a daily dosage regimen. Briefly, male NCG (NOD-Prkdc^em26Cd52//2rg^em26Cd22/NjuCrl) mice (N=12 per group) were given an intravenous injection of 1×10^4 luciferase-expressing MOLM-13 cells. As discussed above, this model is believed to be a very aggressive model of tumor growth (vehicle treated mice typically reach early removal criteria by 24-26 days post-engraftment). Briefly, NCG mice were injected with 1×10^4 MOLM13-luciferase cells (N=12 per group) and at 4 days post-engraftment (Day 0) were imaged and enrolled into one of three treatment groups: Vehicle, 25 mg/kg Cpd3 (administered daily) or 50 mg/kg Cpd3 (administered daily). […] The color scale represents the radiance (p/s/cm2/sr), related to the amount of luciferase expression and therefore disease burden. […] Survival data were calculated using Kapler Meyer analysis (vehicle vs. 25 mg/kg dosing with Cpd3 or vehicle vs. 50 mg/kg dosing with Cpd3; each p<0.001). Arrow indicates the start of treatment.
# [4] = system: AML cell lines (MOLM13, MV4-11, THP1, HL-60, and OCI-AML3); assay: cells; conditions: read-out: IC50 range for growth arrest in AML cell lines
# Method: MTS assay for cell growth/viability: Mitochondrial activity was measured to determine cell proliferation using an MTS assay (tetrazolium dye 3′[4,5-dimethylthiazol-2-yl]-2,5-diphenyl-tetrazolium bromide). Metabolically active cells convert MTS tetrazolium salt into a purple formazan product that is soluble in tissue culture medium. The amount of formazan measured at 490 nm absorbance is proportional to the number of proliferating cells. […] Triplicate wells were set up for each condition. At 96 hours, the MTS reagent was added and after approximately 4 hours the plates were read in a spectrophotometer. MTS assays in primary AML cells were done in a similar manner as the cell lines with the following changes: 100K cells were plated per well, and the MTS was done in the presence of an HS5 stromal cell line to support the in vitro growth of the primary cells. Primary cells were incubated with MTS for approximately 8-12 hours (varies with the samples) before reading the absorbance.
# Cell proliferation assays were carried out using the MTS assay described herein using five AML cell lines (i.e., MOLM13, MV4-11, THP1, HL-60, and OCI-AML3) with varied genetic backgrounds. The assays were carried out in a blinded fashion.
smiles,measurement,setting,value
"CCOc1ccc(-c2ccc(-c3cc(C(=O)O)c4cc(F)ccc4n3)cc2)cc1 [Cpd3, 2-(4′-ethoxy-[1,1′-biphenyl]-4-yl)-6-fluoroquinoline-4-carboxylic acid]",induction of CD11b and CD14 positive cells,[1],induces CD11 b and CD14 in primary human AML cells
same,AUC(0-t),"[2]; 10 mg/kg, 10 mg/kg, read-out: AUC0-6",47 ± 0.92 µg·h/mL
same,AUC(0-t),"[2]; 10 mg/kg, 10 mg/kg, read-out: AUC0-24",66.7 ± 6.17 µg·h/mL
same,AUC(0-t),"[2]; 25 mg/kg, 25 mg/kg, read-out: AUC0-6",101 ± 38 µg·h/mL
same,AUC(0-t),"[2]; 25 mg/kg, 25 mg/kg, read-out: AUC0-24",171 ± 34.2 µg·h/mL
same,AUC(0-t),"[2]; 50 mg/kg, 50 mg/kg, read-out: AUC0-6",333 ± 47.1 µg·h/mL
same,AUC(0-t),"[2]; 50 mg/kg, 50 mg/kg, read-out: AUC0-24",480 ± 62.1 µg·h/mL
same,AUC(0-t),"[2]; 75 mg/kg, 75 mg/kg, read-out: AUC0-6",531 ± 103 µg·h/mL
same,AUC(0-t),"[2]; 75 mg/kg, 75 mg/kg, read-out: AUC0-24",786 ± 39.3 µg·h/mL
same,Cmax,[2]; 10 mg/kg,18.6 ± 0.93 µg/mL
same,Tmax,[2]; 10 mg/kg,0.83 ± 0.29 h
same,half-life,[2]; 10 mg/kg,3.4 ± 0.3 h
same,Cmax,[2]; 25 mg/kg,35.9 ± 12.5 µg/mL
same,Tmax,[2]; 25 mg/kg,0.67 ± 0.29 h
same,half-life,[2]; 25 mg/kg,6.05 ± 1.97 h
same,Cmax,[2]; 50 mg/kg,93.2 ± 18 µg/mL
same,Tmax,[2]; 50 mg/kg,0.67 ± 0.29 h
same,half-life,[2]; 50 mg/kg,3.23 ± 0.77 h
same,Cmax,[2]; 75 mg/kg,115 ± 8.99 µg/mL
same,Tmax,[2]; 75 mg/kg,0.75 ± 0.35 h
same,half-life,[2]; 75 mg/kg,2.76 ± 0.3 h
same,relationship between dose and exposure,"[2]; oral gavage, 10, 25, 50 and 75 mg/kg",linear relationship between dose and exposure
same,Median survival time,[3]; 25 mg/kg QD PO,24 days
same,Median survival time,[3]; 50 mg/kg QD PO,27 days
same,tumor burden (luciferase expression by IVIS imaging),[3]; 25 or 50 mg/kg administered daily,able to reduce the tumor burden in the mice
same,IC50,[4],280 to 1100 nM

# Source: US11999697B2, “Methods and compositions for inhibition of dihydroorotate dehydrogenase” (OHIO STATE INNOVATION FOUNDATION, priority 2018, dated 2024)
